Values after ≈ are worked out from the molar mass of the structure shown.
Experiments:
[1] = simulated gi fluid, pH 5.8
[2] = biological target: T1, Voltage-gated inwardly rectifying potassium channel KCNH2 (Homo sapiens, UniProt Q12809); assay: Inhibition of human ERG by IonWorks patch clamp electrophysiology assay
[3] = Cmax in Sprague-Dawley rat at 18.8 mg/kg, po by LC-MS analysis; assay type: ADME, organism-based; parameters: dose 18.8 mg/kg, route oral; details: in vivo
[4] = Cmax in Swiss mouse at 10 mg/kg, po by LC-MS analysis; assay type: ADME, organism-based; parameters: dose 10 mg/kg, route oral; details: in vivo
in vivo [5] = details: Swiss, mouse, po, 10 mg/kg
Plasmodium falciparum [6] = assay: Antimalarial activity against Plasmodium falciparum 3D70087/N9 infected in po dosed NOD-SCID IL2Rgamma null mouse administered BID for 4 days by flow cytometric analysis; assay type: functional; details: 3D70087/N9, po, 96 h
[7] = Intrinsic clearance in liver microsomes assessed as per mg protein; details: read-out: CLH
[8] = Oral bioavailability in Swiss mouse at 10 mg/kg by LC-MS analysis; assay type: ADME, organism-based; details: in vivo
Plasmodium falciparum [9] = tested on: Plasmodium falciparum
[10] = Protein binding in human liver microsomes by LC-MS analysis based ultracentrifugation assay; assay type: ADME, Microsome; details: read-out: PB (converted)
[11] = Inhibition of yeast DHODH transformed in Plasmodium falciparum D10 in presence of 10 uM proguanil; parameters: species or system Saccharomyces cerevisiae
[12] = fAUC in Plasmodium falciparum 3D70087/N9 infected po dosed NOD-SCID IL2Rgamma null mouse blood administered once daily for 4 days; assay type: ADME, organism-based; details: in vivo, 96 h
[13] = Protein binding in rat plasma by LC-MS analysis based ultracentrifugation assay; assay type: ADME, cell-free; details: read-out: PPB (converted)
L1210 = assay: Cytotoxicity against mouse L1210 cells assessed as reduction in cell viability; assay type: cell-based
Plasmodium falciparum [14] = assay type: functional, organism-based; details: R10C1B, 72 h
[15] = Protein binding in DMEM medium containing 10% fetal calf serum by LC-MS analysis based ultracentrifugation assay; assay type: ADME, cell-free, Bos taurus; details: cattle, serum
Plasmodium falciparum [16] = assay: microbe, parasite or virus in culture; details: 1D3, 72 h
[17] = AUC (0 to infinity) in Swiss mouse at 10 mg/kg, po by LC-MS analysis; assay type: ADME, organism-based; parameters: dose 10 mg/kg, route oral, time infinity; details: in vivo
[18] = Clearance in Sprague-Dawley rat plasma at […], iv by LC-MS analysis; assay type: ADME, organism-based; details: in vivo
Plasmodium falciparum [19] = assay: microbe, parasite or virus in culture; details: 3D7, 72 h
[20] = Intrinsic clearance in human liver microsomes assessed as per mg protein; assay type: ADME, Microsome
physchem [21] = details: PBS, pH 7.4
Plasmodium falciparum [22] = assay: Antimalarial activity against Plasmodium falciparum R1BC1A harboring DHODH L531F mutant measured after 72 hrs by SYBR Green dye based fluorescence assay; assay type: functional, organism-based
Plasmodium falciparum [23] = assay: Antimalarial activity against Plasmodium falciparum R1AC1B harboring DHODH C276F mutant measured after 72 hrs by SYBR Green dye based fluorescence assay; assay type: functional, organism-based
in vivo [24] = details: Sprague-Dawley, rat, po
Albumin [25] = biological target: T2, Albumin (Homo sapiens, UniProt P02768); assay: Binding affinity to albumin (unknown origin) in ALBUMAX medium; assay type: ADME; details: read-out: PB (converted)
T2 sequence (P02768 whole entry): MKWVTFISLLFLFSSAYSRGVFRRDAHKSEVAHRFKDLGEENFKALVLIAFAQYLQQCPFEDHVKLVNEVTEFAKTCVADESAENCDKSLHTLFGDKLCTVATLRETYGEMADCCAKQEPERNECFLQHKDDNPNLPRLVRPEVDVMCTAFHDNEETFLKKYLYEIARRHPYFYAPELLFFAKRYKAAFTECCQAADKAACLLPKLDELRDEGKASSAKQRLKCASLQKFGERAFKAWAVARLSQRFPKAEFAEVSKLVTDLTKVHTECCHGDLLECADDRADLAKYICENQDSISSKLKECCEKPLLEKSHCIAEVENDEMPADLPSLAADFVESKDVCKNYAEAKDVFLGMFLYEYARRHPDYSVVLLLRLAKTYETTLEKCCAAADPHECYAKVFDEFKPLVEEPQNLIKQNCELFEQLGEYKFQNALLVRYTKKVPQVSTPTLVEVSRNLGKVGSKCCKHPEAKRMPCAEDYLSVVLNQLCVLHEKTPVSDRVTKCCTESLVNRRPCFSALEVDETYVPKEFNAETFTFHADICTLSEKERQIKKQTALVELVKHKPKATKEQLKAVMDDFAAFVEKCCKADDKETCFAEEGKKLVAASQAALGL

[26] = Apparent half life in Swiss mouse at 10 mg/kg, po by LC-MS analysis; assay type: ADME, organism-based; details: in vivo, read-out: t1/2(app) (converted)
Albumin [27] = biological target: T2, Albumin; assay: Binding affinity to albumin (unknown origin) by chromatographic method; assay type: ADME; details: isolated protein
physchem [28] = details: fasted state simulated gastric fluid, pH 1.6
[29] = Intrinsic clearance in mouse liver microsomes assessed as per mg protein; assay type: ADME, Microsome; details: liver microsomes, read-out: CLH
HepG2 = assay: Cytotoxicity against human HepG2 cells assessed as reduction in cell viability; assay type: cell-based
physchem [30] = details: fasted state simulated intestinal fluid, pH 6.5
Plasmodium falciparum [31] = assay: animal or person; details: 3D70087/N9, 96 h
Plasmodium falciparum [32] = assay type: functional, organism-based; details: R2B, 72 h
[33] = Inhibition of N-terminal His6-tagged Plasmodium falciparum DHODH expressed in Escherichia coli BL21(DE3) cells using L-DHO as substrate by DCIP dye based assay
[34] = biological target: T1, Voltage-gated inwardly rectifying potassium channel KCNH2; assay: Inhibition of human ERG by patch clamp assay

T1 sequence (Q12809 whole entry): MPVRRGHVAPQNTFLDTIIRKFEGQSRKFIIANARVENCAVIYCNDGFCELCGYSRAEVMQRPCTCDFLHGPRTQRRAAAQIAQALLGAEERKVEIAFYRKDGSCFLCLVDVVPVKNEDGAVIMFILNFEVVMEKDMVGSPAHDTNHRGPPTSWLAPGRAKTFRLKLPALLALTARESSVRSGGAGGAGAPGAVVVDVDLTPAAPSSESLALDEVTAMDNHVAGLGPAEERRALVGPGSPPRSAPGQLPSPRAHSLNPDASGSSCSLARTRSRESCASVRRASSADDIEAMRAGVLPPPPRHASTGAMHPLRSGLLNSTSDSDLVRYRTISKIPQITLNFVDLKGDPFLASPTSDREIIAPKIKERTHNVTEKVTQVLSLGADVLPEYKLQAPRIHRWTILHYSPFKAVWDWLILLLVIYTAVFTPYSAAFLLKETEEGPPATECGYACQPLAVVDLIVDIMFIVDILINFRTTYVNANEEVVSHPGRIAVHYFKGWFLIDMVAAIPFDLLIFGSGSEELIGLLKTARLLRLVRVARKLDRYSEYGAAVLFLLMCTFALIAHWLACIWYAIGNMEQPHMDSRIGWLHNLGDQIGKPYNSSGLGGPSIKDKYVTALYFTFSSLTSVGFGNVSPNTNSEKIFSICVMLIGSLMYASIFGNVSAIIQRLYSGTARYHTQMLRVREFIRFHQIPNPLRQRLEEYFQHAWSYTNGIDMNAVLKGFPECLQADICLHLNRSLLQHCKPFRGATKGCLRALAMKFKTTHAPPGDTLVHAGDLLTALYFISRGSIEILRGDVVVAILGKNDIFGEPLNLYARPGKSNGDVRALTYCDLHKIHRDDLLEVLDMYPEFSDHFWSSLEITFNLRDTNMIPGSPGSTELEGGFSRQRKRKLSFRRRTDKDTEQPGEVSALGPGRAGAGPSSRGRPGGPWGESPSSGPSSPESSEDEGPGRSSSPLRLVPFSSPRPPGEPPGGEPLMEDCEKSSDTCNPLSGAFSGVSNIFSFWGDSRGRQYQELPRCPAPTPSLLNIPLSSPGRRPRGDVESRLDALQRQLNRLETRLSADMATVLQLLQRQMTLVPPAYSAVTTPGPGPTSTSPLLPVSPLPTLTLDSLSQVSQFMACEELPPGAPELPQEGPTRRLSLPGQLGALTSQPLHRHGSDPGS

Cc1cc(Nc2ccc(S(F)(F)(F)(F)F)cc2)n2nc(C(C)(F)F)nc2n1 [DSM-265]
solubility [1]: 27.6 µg/mL (≈ 66.5 µM) | EC50 [2]: 7 µM | Cmax [3]: 3.95 µM | Cmax [4]: 3.94 µM | Tmax (in vivo [5]): 1 to 2 h | ED90 (Plasmodium falciparum [6]): 3 mg/kg/day | microsomal CLint [7]: < 7 µL/min/mg | bioavailability [8]: 61% | fEC50 (Plasmodium falciparum [9]): 0.001 µM | fraction unbound [10]: 0.283 | EC50 [11]: > 20 µM | fAUC [12]: 0.015 to 0.023 µg·h/mL | fraction unbound [13]: 0.03 | CC50 (L1210): > 50 µM | EC50 (Plasmodium falciparum [14]): 0.12 to 0.15 µM | PB [15]: 78.5% | EC50 (Plasmodium falciparum [16]): 0.023 µM | AUC(0-inf) [17]: 29.7 µM·h | clearance [18]: 0.39 L/h/kg | EC50 (Plasmodium falciparum [19]): 0.006 µM | microsomal CLint [20]: < 7 µL/min/mg | solubility (physchem [21]): 2 µg/mL (≈ 4.82 µM) | EC50 (Plasmodium falciparum [22]): 0.08 to 0.11 µM | EC50 (Plasmodium falciparum [23]): 0.17 µM | Tmax (in vivo [24]): 3.3 h | fraction unbound (Albumin [25]): 0.169 | half-life [26]: 2.4 h | PB (Albumin [27]): 97.4% | solubility (physchem [28]): 6.8 µg/mL (≈ 16.4 µM) | microsomal CLint [29]: 7 to 8 µL/min/mg | CC50 (HepG2): > 50 µM | solubility (physchem [30]): 5.1 µg/mL (≈ 12.3 µM) | EC50 (Plasmodium falciparum [31]): 0.006 µM | EC50 (Plasmodium falciparum [32]): 0.074 to 0.15 µM | IC50 [33]: 0.03 µM | EC50 [34]: 1.6 µM
